Source: patent publication US9932311B2, “Antidiabetic tricyclic compounds” (Merck Sharp & Dohme Corp., priority 2013, dated 2018)
Values belong to the molecule of their own block, whether it stands above or below them.

Tests used:
Human GPR40 [1] = molecular target: T1, Human GPR40 (Homo sapiens, UniProt O14842); experiment: Inositol Phosphate Turnover (IP1) Assay 1; assay type: cell-based; design: expressed in transfected cells; host or cells: HEK cells stably expressing the aequorin reporter; conditions: HEK cells stably expressing human GPR40, 96-well, 3H-inositol labeling, SPA beads
T1 sequence (O14842 whole entry): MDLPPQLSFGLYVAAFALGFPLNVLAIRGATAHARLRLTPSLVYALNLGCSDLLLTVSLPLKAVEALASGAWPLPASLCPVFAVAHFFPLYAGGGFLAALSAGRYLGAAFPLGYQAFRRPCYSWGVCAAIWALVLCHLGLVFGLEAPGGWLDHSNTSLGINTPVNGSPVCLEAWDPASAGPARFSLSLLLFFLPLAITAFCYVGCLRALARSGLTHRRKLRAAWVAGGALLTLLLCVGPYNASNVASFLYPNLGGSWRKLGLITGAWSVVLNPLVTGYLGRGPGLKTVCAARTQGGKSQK
Procedure: Human and mouse GPR40 stable cell-lines were generated in CHO cells stably expressing NFAT BLA (Beta-lactamase). A human GPR40 stable cell-line was generated in HEK cells stably expressing the aequorin expressing reporter. The expression plasmids were transfected using lipofectamine (Life Technologies) following manufacturer's instructions. Stable cell-lines were generated following drug selection.
The assay was performed in 96-well format. HEK cells stably expressing human GPR40 were plated to be 60-80% confluent within 72 h. After 72 h, the plates were aspirated and the cells washed with inositol-free DMEM (ICN). The wash media was replaced with 150 μL of 3H-inositol labeling media (inositol-free media containing 0.4% human albumin or 0.4% mouse albumin, 1× pen/strep antibiotics, glutamine, 25 mM HEPES to which was added 3H-myo-inositol NEN #NET114A 1 mCi/mL, 25 Ci/mmol diluted 1:150 in loading media with a final specific radioactivity of 1 μCi/150 μL). Alternatively, the human and mouse albumin can be added after the overnight labeling step before the addition of LiCl.
The assay was typically run the next day after 18 h labeling. On the day of the assay, 5 μL of 300 mM LiCl was added to all wells and incubated at 37 degrees for 20 min 0.75 μL of 200× compounds were added and incubated with the cells for 60 min at 37 degrees. The media was then aspirated off and the assay terminated with the addition of 60 μL 10 mM formic acid. The cells were lysed for 60 min at room temperature. 15-30 μL of lysate was mixed with 70 μL/1 mg YSi SPA beads (Amersham) in clear bottom Isoplates. The plates were shaken for 2 h at room temperature. Beads were allowed to settle and the plates were counted in the Wallac Microbeta.

Human GPR40 [2] = molecular target: T1, Human GPR40; experiment: Inositol Phosphate Turnover (IP1) Assay 2; assay type: cell-based; design: expressed in transfected cells; host or cells: HEK cells stably expressing the aequorin reporter; conditions: HEK cells stably expressing human GPR40, 384-well, CisBio IP-One kit
Procedure: The assay was performed in 384-well format. HEK cells stably expressing human GPR40 were plated at 15,000 cells per well in growth medium (DMEM/10% fetal calf serum). Cell plates were then incubated 16 hours at 37 degrees in a 5% CO2 incubator.
Measurement of Inositol Phosphate Turnover (IP1) was performed using the CisBio IP-One kit (Part number 62IPAPEB). After the 16 hour incubation, the cells were washed with HEPES buffer and 10 ul of stimulation buffer (prepared as described in the kit) was added to each well. In a separate plate, compounds were diluted in DMSO (400-fold over the final concentration in the assay well) and 25 nl was acoustically transferred to the appropriate well in the assay cell plate. The plates were then incubated for 60 minutes at 37 degrees. 10 ul of detection buffer (also prepared as described in the IP-One kit) was added to each well and the plates were incubated for 60 minutes in the dark. The plates were then read in a Perkin Elmer EnVision or equivalent reader able to measure FRET. Fluorescent ratio of emission at 665 and 620 nm was then converted to IP1 concentration by back calculating from an IP1 standard curve prepared at the time of the assay.

Structure (SMILES): Cc1cc(OCC[C@H](O)CO)cc(C)c1-c1cc(COc2cc3c(cn2)[C@H]2[C@@H](C3)[C@@H]2C(=O)O)c(F)cc1F [Example 24, Sodium (5aR,6S,6aS)-3-((4′-((S)-3,4-dihydroxybutoxy)-4,6-difluoro-2′,6′-dimethyl-[1,1′-biphenyl]-3-yl)methoxy)-5,5a,6,6a-tetrahydrocyclopropa[4,5]cyclopenta[1,2-c]pyridine-6-carboxylate]
EC50 (Human GPR40 [1]): 4.6 nM
EC50 (Human GPR40 [2]): 1.3 nM

Structure (SMILES): Cc1cc(OCCC(C)(O)C(F)F)nc(C)c1-c1cc(COc2cc3c(cn2)C2[C@@H](C3)[C@@H]2C(=O)O)c(F)cc1F (stereo in doubt) [Example 17, (5aR,6S,6aR)-3-((5-(6-(4,4-difluoro-3-hydroxy-3-methyl-butoxy)-2,4-di-methylpyridin-3-yl)-2,4-difluorobenzyl)oxy)-5,5a,6,6a-tetra-hydrocyclopropa[4,5] cyclopenta[1,2-c] pyridine-6-carboxylic acid]
EC50 (Human GPR40 [2]): 2.1 nM

Structure (SMILES): Cc1cc(OCCC(C)(O)CO)cc(C)c1-c1cc(COc2cc3c(cn2)[C@H]2[C@@H](C3)[C@@H]2C(=O)O)c(F)cc1F (stereo partly drawn) [Example 19, (5aR,6S,6aS)-3-((4′-(3,4-dihydroxy-3-methyl-butoxy)-4,6-difluoro-2′,6′-dimethyl-[1,1′-biphenyl]-3-yl)methoxy)-5,5a,6,6a-tetrahydro-cyclopropa[4,5]-cyclopenta[1,2-c] pyridine-6-carboxylic acid]
EC50 (Human GPR40 [2]): 1.6 nM

EC50 (Human GPR40 [2]): 5.2 nM
Structure (SMILES): Cc1cc(CCC(C)(O)CO)cc(C)c1-c1cc(COc2cc3c(cn2)[C@H]2[C@@H](C3)[C@@H]2C(=O)O)c(F)cc1F (stereo partly drawn) [Example 23, (5aR,6S,6aS)-3-((4′-(3,4-dihydroxy-3-methylbutyl)-4,6-difluoro-2′,6′-dimethyl-[1,1′-biphenyl]-3-yl)methoxy)-5,5a,6,6a-tetrahydrocyclopropa[4,5]cyclopenta[1,2-c]pyridine-6-carboxylic acid]

Structure (SMILES): Cc1nc(OCCC(C)(O)CO)ccc1-c1cc(COc2cc3c(cn2)[C@H]2[C@@H](C3)[C@@H]2C(=O)O)c(F)cc1C(F)(F)F (stereo partly drawn) [Example 20, (5aR,6S,6aS)-3-((5-(6-(3,4-dihydroxy-3-methyl-butoxy)-2-methylpyridin-3-yl)-2-fluoro-4-(tri-fluoro-methyl)benzyl)-oxy)-5,5a,6,6a-tetra-hydro-cyclopropa[4,5]-cyclopenta[1,2-c]-pyridine-6-carboxylic acid]
EC50 (Human GPR40 [2]): 3.1 nM

Structure (SMILES): Cc1cc(OCC[C@@H](O)CO)cc(C)c1-c1cc(COc2cc3c(cn2)[C@H]2[C@@H](C3)[C@@H]2C(=O)O)c(F)cc1F [Example 25, (5aR,6S,6aS)-3-((4′-((R)-3,4-dihydroxy-butoxy)-4,6-difluoro-2′,6′-dimethyl-[1,1′-biphenyl]-3-yl)methoxy)-5,5a,6,6a-tetrahydrocyclo-propa[4,5]cyclopenta [1,2-c]pyridine-6-carboxylic acid]
EC50 (Human GPR40 [1]): 4.7 nM
EC50 (Human GPR40 [2]): 3.8 nM

Structure (SMILES): Cc1cc(OCC[C@@H](O)CO)c(F)cc1-c1cc(COc2cc3c(cn2)[C@H]2[C@@H](C3)[C@@H]2C(=O)O)c(F)cc1Cl [Example 26, (5aR,6S,6aS)-3-((6-chloro-4′-((R)-3,4-dihydroxybutoxy)-4,5,-difluoro-2′-methyl-[1,1′-biphenyl]-3-yl)methoxy)-5,5a,6,6a-tetrahydrocyclo-propa[4,5]cyclopenta [1,2-c]pyridine-6-carboxylic acid]
EC50 (Human GPR40 [2]): 0.7 nM

Structure (SMILES): C[C@@](O)(CO)CCOc1ccc(-c2cc(COc3cc4c(cn3)[C@H]3[C@@H](C4)[C@@H]3C(=O)O)c(F)cc2F)c(Cl)c1 [Example 21, (5aR,6S,6aS)-3-((2′-chloro-4′-((S)-3,4-dihydroxy-3-methyl-butoxy)-4,6-di-fluoro-[1,1′-biphenyl]-3-yl)methoxy)-5,5a,6,6a-tetrahydrocyclopropa [4,5]cyclopenta[1,2-c] pyridine-6-carboxylic acid]
EC50 (Human GPR40 [2]): 2.2 nM

Structure (SMILES): Cc1cc(OCC(C(C)(C)O)C(C)(C)O)cc(C)c1-c1cc(COc2cc3c(cn2)[C@H]2[C@@H](C3)[C@@H]2C(=O)O)c(F)cc1F [Example 22, (5aR,6S,6aS)-3-((4,6-difluoro-4′-(3-hydroxy-2-(2-hydroxypropan-2-yl)-3-methylbutoxy)-2′,6′-dimethyl-[1,1′-biphenyl]-3-yl)methoxy)-5,5a,6,6a-tetrahydrocyclopropa[4,5]cyclopenta[1,2-c]pyridine-6-carboxylic acid]
EC50 (Human GPR40 [2]): 3.1 nM
